A word on the IC50: it is the concentration at which inhibition is half-maximal. The low end stands for greater potency in that assay, the high end for weaker potency in that assay. In general, Ki refers to the dissociation constant of the complex between target and ligand, obtained from inhibition or displacement. A higher Ki goes with weaker binding.

For assay [1], the target named is alpha-L-fucosidase (Bos taurus). Briefly: Inhibition of bovine kidney alpha-L-fucosidase.
Assay [2] shares this target. Briefly: Binding affinity against alpha-L-fucosidase in bovine kidney was determined.
The target is the same in assay [3]. The assay is described as above. This is another data set of the same source.

In the case of `CC1CC(NCc2ccccc2)C(O)C(O)C1O` [(1R,2S,3S)-4-Benzylamino-6-methyl-cyclohexane-1,2,3-triol], in assay [1], the IC50 was determined as 1000 nM. Also, in assay [2], the Ki is 69 nM.

Consider `CCCCNC1CC(C)C(O)C(O)C1O` [(1R,2S,3S)-4-Butylamino-6-methyl-cyclohexane-1,2,3-triol], for which, in assay [1], 920 nM corresponded to half-maximal inhibition (IC50). In addition, the Ki in assay [3] stood at 74 nM.

`CCNC1CC(C)C(O)C(O)C1O` [(1R,2S,3S)-4-Ethylamino-6-methyl-cyclohexane-1,2,3-triol] yielded an IC50 in assay [1] of 21000 nM. In assay [3], the Ki turned out to be 180 nM.

As for `CCCCCCCNC1CC(C)C(O)C(O)C1O` [(1R,2S,3S)-4-Heptylamino-6-methyl-cyclohexane-1,2,3-triol], the IC50 in assay [1] was found to be 270 nM. In addition, in assay [3], the affinity, expressed as Ki, was 48 nM.

For `CCCCCCCCCNC1CC(C)C(O)C(O)C1O` [(1S,2S,3R)-4-Methyl-6-nonylamino-cyclohexane-1,2,3-triol], the IC50 in assay [1] is 240 nM. In assay [3], this compound came in with a Ki of 110 nM.

For the compound `CC1CC(NCCc2ccccc2)C(O)C(O)C1O` [(1S,2S,3R)-4-Methyl-6-phenethylamino-cyclohexane-1,2,3-triol], the IC50 in assay [1] is 240 nM. Also, in assay [3], the Ki was 32 nM.

As for `CC1CC2N=C(NCc3ccccc3)OC2C(O)C1O` [(6R,7S,7aS)-2-Benzylamino-5-methyl-3a,4,5,6,7,7a-hexahydro-benzooxazole-6,7-diol], the half-inhibitory concentration (IC50) in assay [1] stood at 72000 nM. This lies in the double-digit micromolar range.

On to `CCCCNC1=NC2CC(C)C(O)C(O)C2O1` [(6R,7S,7aS)-2-Butylamino-5-methyl-3a,4,5,6,7,7a-hexahydro-benzooxazole-6,7-diol], for which the IC50 in assay [1] is 140000 nM. Against the preceding compound, the IC50 is about 1.9-fold higher.

In assay [1], `CC1CC2N=C(Nc3ccccc3)OC2C(O)C1O` [(6R,7S,7aS)-5-Methyl-2-phenylamino-3a,4,5,6,7,7a-hexahydro-benzooxazole-6,7-diol] yielded an IC50 of 7600 nM.

Values taken from BindingDB's records for doi:10.1016/s0960-894x(02)00627-3 (Keio University, 2002).
